Experimental data from ChEMBL document CHEMBL1201862, “PubChem BioAssay data set” (2004).
Activity calls are given as the source filed them.

Key:
[1] = target: DNA dC->dU-editing enzyme APOBEC-3A (Homo sapiens, UniProt P31941); assay: Dose Response confirmation of small molecule APOBEC3A DNA Deaminase Inhibitors via a fluorescence-based single-stranded DNA deaminase assay. [Related pubchem assays (depositor defined):AID493011, AID493024]; format: functional
[2] = target: DNA dC->dU-editing enzyme APOBEC-3G (Homo sapiens, UniProt Q9HC16); format: functional;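 also: Dose-response counterscreen measuring inhibition of APOBEC3G DNA deaminase activity, run while confirming APOBEC3A inhibitors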
Estrogen receptor = target: T1, Estrogen receptor (Homo sapiens, UniProt P03372);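 also: potency for inhibiting coactivator peptide recruitment to the receptor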
T1 sequence (P03372 whole entry): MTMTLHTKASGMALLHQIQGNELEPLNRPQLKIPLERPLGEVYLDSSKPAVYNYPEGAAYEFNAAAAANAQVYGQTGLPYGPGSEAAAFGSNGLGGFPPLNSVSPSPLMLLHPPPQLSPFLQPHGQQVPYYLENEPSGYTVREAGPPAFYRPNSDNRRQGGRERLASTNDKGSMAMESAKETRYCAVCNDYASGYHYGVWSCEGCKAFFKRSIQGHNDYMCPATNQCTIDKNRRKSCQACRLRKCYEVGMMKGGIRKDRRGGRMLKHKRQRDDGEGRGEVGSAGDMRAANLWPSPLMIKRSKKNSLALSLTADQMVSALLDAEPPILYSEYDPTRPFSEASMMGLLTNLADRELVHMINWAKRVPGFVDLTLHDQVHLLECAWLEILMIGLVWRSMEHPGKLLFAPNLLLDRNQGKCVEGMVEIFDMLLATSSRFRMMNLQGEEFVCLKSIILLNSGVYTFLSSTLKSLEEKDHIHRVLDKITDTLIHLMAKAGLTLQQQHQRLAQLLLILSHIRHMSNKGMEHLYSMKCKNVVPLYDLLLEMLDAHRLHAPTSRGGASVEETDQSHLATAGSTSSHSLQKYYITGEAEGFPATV

[3] = target: T2, Apoptotic protease-activating factor 1 (Homo sapiens, UniProt O14727); format: functional
T2 sequence (O14727 whole entry): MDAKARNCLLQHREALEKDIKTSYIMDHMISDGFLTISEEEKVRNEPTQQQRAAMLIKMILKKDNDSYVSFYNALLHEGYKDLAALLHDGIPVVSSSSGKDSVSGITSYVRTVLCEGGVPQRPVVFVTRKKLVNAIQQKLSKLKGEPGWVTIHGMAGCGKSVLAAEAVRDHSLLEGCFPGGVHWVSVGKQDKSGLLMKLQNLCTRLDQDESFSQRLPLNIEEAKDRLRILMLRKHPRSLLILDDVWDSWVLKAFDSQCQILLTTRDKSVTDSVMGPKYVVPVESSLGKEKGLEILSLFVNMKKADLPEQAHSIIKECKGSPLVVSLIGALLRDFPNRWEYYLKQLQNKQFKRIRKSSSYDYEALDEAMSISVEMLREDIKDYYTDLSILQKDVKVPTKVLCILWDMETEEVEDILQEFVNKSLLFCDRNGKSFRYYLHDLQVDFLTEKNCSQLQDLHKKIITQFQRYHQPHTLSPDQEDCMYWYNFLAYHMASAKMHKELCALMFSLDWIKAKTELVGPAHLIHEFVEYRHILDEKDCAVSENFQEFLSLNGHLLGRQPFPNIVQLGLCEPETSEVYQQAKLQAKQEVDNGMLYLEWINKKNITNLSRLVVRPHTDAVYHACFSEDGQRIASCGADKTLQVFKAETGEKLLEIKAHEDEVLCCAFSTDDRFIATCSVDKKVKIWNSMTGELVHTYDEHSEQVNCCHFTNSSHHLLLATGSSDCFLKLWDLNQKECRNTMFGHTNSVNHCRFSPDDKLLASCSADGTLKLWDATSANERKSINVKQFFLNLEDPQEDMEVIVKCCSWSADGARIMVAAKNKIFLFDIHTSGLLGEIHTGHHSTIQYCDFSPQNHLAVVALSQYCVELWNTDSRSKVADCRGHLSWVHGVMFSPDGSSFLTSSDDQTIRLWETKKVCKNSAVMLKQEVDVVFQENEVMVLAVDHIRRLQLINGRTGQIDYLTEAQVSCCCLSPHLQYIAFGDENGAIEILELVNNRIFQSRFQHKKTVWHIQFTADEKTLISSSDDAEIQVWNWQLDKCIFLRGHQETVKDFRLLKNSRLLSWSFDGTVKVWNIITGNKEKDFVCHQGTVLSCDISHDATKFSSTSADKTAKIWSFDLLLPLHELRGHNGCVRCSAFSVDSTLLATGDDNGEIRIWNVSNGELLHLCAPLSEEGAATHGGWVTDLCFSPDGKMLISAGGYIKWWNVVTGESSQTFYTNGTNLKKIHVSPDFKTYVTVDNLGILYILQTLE

Vero = assay: cells; format: functional; conditions: Chlorocebus sabaeus
[4] = cytotoxicity in HEK-293T cells, dose response, cytotoxicity control for BCR NF-kB inhibitor project, luminescence, B-cell screen hits (AID 489021); format: functional, cell-based;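 also: HEK-293T cells carrying an NF-kB luciferase reporter; cells exposed to compound for about 14 hours before viability readout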
HEK293 [5] = assay: NOD1 signaling inhibitors, primary screen, cell-based, luminescence, uHTS (AID 1578); format: functional; conditions: Homo sapiens
[6] = inhibitors of SNCA 5'UTR-driven reporter translation, confirmation, H4 neuroglioma cells, luminescence (AID 1988); format: functional, cell-based
HEK293 [7] = assay: cells; format: functional, cell-based; conditions: Homo sapiens
HEK293 [8] = assay: NOD2 signaling inhibitors in MDP-stimulated cells, cell-based, uHTS, luminescence (AID 2001); format: functional; conditions: Homo sapiens
[9] = inhibitors of firefly luciferase expression or activity, dose response, H4 neuroglioma cells, luminescence (AID 1990); format: functional, cell-based
[10] = Luminescence Cell-Based Dose Response HTS to Identify Inhibitors of 5'UTR Stem-Loop Driven Prion Protein mRNA Translation in H4 Neuroglioblastoma Cells. [Related pubchem assays: 1827 (Project Summary), 1813 (Primary HTS)]; format: functional
HEK293 [11] = assay: cells; format: functional, cell-based; conditions: Homo sapiens; remark: listed apart in the source
[12] = target: T3, Heat shock factor protein 1 (Mus musculus, UniProt P38532); assay: inhibition of MG132-induced HSE-luciferase signal, confirmation, cell-based, NIH3T3, luminescence, dose retest (AID 2382); format: functional;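 also: NIH3T3 fibroblasts with HSF1-driven luciferase reporter stressed by proteasome inhibitor MG132; luminescence from HSF1-driven luciferase expression after 8 hours of MG132 stress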
T3 sequence (P38532 whole entry): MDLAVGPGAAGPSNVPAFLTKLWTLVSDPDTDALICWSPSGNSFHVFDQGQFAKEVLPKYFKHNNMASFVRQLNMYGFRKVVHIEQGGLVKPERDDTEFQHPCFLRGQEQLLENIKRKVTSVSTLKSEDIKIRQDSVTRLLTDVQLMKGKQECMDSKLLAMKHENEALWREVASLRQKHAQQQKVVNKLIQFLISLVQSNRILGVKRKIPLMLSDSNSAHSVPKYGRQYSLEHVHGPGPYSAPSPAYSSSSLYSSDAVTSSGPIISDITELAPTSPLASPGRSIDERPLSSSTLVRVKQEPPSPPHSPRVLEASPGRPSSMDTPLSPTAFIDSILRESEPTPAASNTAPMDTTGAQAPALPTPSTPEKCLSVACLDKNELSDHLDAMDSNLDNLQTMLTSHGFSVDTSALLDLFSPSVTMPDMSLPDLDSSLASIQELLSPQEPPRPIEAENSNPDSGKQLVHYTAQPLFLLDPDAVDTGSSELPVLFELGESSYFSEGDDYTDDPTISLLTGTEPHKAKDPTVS

[13] = target: Nucleotide-binding oligomerization domain-containing protein 2 (Homo sapiens, UniProt Q9HC29); assay: NOD2 signaling inhibitors, cell-based, luminescence, uHTS, HEK293 (AID 1566); format: functional
HEK293 [14] = assay: cells; format: functional, cell-based; conditions: Homo sapiens; remark: listed apart in the source
[15] = target: T4, Short transient receptor potential channel 4 (Mus musculus, UniProt Q9QUQ5); assay: mouse TRPC4 channel activators, dose response, cell-based, HEK293 TRPC4/mu-opioid, Fluo-4 calcium (AID 434937); format: functional
T4 sequence (Q9QUQ5 whole entry): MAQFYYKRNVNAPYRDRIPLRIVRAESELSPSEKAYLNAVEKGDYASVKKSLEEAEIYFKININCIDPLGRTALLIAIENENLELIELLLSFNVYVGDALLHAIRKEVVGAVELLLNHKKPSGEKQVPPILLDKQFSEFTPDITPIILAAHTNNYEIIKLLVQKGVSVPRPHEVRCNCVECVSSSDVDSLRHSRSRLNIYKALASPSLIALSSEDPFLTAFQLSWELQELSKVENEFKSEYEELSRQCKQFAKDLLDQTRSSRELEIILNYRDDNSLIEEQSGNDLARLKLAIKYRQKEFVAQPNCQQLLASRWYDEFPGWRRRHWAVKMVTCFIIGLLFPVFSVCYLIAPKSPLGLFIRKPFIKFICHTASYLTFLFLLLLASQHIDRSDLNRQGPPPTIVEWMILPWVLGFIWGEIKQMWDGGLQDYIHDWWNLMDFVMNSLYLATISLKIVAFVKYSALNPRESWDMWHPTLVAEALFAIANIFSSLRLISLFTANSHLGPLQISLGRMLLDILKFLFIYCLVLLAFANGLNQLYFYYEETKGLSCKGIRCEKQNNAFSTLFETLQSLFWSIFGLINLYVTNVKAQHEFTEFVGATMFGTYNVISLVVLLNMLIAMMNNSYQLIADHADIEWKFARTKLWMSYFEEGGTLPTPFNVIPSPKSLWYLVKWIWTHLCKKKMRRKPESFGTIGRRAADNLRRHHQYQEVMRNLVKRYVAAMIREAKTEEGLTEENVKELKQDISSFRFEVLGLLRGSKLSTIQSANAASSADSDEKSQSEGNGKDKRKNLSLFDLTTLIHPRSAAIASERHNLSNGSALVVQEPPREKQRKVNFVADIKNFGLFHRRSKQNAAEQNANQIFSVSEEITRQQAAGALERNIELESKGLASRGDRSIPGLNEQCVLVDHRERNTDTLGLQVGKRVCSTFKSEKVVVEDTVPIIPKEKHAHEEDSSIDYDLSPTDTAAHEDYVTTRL

[16] = Luminescence Cell-Based Dose Retest to Confirm Inhibitors of Cancer Stem Cells. [Related pubchem assays (depositor defined):AID2717, AID2721]; format: functional; conditions: Homo sapiens
INS1 = assay: beta cell apoptosis inhibitors, cytokine rescue, dose response, luminescence, retest (AID 449756); format: functional, cell-based; conditions: Rattus norvegicus;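 also: cell death triggered by IL-1 beta plus TNF-alpha plus IFN-gamma mixture; protective hits raise ATP signal compared with cytokine alone wells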

DNA dC->dU-editing enzyme APOBEC-3G, sequence (Q9HC16 whole entry): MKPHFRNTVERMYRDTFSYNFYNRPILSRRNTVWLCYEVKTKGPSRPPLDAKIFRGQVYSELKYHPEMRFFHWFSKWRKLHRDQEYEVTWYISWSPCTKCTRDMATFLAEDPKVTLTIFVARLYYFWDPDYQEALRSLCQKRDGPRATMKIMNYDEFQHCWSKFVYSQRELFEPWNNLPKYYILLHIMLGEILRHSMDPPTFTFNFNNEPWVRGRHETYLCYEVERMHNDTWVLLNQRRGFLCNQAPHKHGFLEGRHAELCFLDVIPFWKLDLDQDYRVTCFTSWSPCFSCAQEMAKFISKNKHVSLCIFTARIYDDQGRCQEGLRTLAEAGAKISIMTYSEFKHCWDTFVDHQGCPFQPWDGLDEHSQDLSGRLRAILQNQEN
DNA dC->dU-editing enzyme APOBEC-3A, sequence (P31941 whole entry): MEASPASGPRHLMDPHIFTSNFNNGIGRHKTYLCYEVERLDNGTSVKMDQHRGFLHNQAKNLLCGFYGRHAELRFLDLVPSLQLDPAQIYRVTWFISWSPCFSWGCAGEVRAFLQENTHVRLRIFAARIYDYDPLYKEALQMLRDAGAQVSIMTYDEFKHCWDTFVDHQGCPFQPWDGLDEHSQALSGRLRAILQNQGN
Nucleotide-binding oligomerization domain-containing protein 2, sequence (Q9HC29 whole entry, the tested form may be a part): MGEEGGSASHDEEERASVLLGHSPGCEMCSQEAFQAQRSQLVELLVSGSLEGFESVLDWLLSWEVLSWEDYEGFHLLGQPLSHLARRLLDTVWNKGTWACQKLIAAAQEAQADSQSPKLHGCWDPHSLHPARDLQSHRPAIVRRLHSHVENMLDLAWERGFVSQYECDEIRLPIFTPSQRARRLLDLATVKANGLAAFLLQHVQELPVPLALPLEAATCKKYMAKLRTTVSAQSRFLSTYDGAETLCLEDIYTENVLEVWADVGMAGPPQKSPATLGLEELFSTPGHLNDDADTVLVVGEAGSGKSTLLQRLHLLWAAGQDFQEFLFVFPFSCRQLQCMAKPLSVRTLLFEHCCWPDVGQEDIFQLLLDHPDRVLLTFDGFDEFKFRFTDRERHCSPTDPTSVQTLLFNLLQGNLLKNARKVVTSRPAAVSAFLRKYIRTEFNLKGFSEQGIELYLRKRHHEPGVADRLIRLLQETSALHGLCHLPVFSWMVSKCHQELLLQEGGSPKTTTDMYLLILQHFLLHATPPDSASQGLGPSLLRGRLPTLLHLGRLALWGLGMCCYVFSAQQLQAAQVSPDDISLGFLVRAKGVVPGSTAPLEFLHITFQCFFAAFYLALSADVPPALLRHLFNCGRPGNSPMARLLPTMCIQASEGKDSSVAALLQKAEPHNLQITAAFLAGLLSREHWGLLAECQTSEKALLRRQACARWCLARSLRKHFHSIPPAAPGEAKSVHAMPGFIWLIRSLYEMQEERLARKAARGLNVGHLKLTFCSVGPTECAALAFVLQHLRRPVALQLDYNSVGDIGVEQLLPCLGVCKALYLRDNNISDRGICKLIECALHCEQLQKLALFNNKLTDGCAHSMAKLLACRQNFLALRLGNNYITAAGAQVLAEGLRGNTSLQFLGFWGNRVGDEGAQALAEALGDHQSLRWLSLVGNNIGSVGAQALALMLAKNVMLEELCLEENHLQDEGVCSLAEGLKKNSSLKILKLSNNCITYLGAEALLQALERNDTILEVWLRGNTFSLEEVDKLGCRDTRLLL

Row | Compound | IC50 [1] | IC50 [2] | IC50 [4] | EC50 (HEK293 [5]) | IC50 (HEK293 [7]) | IC50 (HEK293 [8]) | IC50 (HEK293 [11]) | EC50 [13] | IC50 (HEK293 [14]) | other results
1 | CC(=O)Nc1nnc(SCc2ccc(C(=O)Nc3ccccc3F)cc2)s1 | 5.85 µM (active) | 6.06 µM (active) | – | – | – | – | – | – | – | –
2 | Cn1c(SCC(=O)Nc2ccc3c(c2)oc2ccccc23)nnc1-c1ccccc1 | 5.4 µM (active) | 6.7 µM (active) | – | – | – | – | – | – | – | IC50 (Estrogen receptor): > 50 µM (not active)
3 | Cc1ccc(-c2nn3c(C)nnc3c3ccccc23)cc1S(=O)(=O)NCc1ccco1 | – | – | > 80 µM (inactive) | – | – | – | – | – | – | IC50 [3]: 15.2 µM (active); CC50 (Vero): 3.28 µM (active)
4 | O=C(O)CCSc1ncnc2sc(-c3ccccc3)cc12 | – | – | > 80 µM (inactive) | 7.39 µM (active) | 1.54 µM (active) | 3.59 µM (active) | > 20 µM (inactive) | 4.19 µM (active) | > 20 µM (inactive) | EC50 [6]: 4.68 µM (active); EC50 [9]: 4.36 µM (active); EC50 [10]: 9.35 µM (active); EC50 [12]: 0.643 µM (active)
5 | Cc1cccc(C(=O)NC(=S)NNC(=O)c2cccs2)c1 | – | – | – | – | – | – | – | – | – | EC50 [15]: 2.99 µM (active)
6 | COc1cc(NC(=O)c2cc3ccccc3cc2O)c(OC)cc1Cl | – | – | – | 4.15 µM (active) | > 20 µM (inactive) | 4.06 µM (inactive) | > 20 µM (inactive) | 5.66 µM (active) | 14 µM (active) | AC50 [16]: 0.612 µM (active); AC50 (INS1): 4.03 µM (active)
